We go through seven compounds from patent US20070224645A1, “Novel cell-based phosphodiesterase assays” (priority 2006, published 2007).

The experiment concerns PDE IV. The experiment is described as follows: Cell-based PDE assay in ACTOne-IRES-A2b#2 cell line with ACTOne Membrane Potential dye, no external cAMP stimulation. The following applies: ACTOne-IRES-A2b#2 cell line (HEK293-CNG overexpressing human adenosine A2b receptor); readings before and 30 minutes after compound addition. On the procedure:
Before the assay, all cells are harvested when they reach 80-90% confluence or less, and they should not be overgrown. Culture medium of the transfected cells was removed and replaced with a volume of Dulbecco's Phosphate Buffers Saline without calcium and magnesium (DPBS) to adequately cover and wash the cells. The DPBS was removed and a sufficient volume of 1× trypsin-EDTA was added to just cover the cells (i.e. 1 ml for a 10 cm dish, 2 ml for a T75 flask, and 5 ml for a T150 flask). The plate was agitated to make sure the cells were equally covered with the solution. The cells were trypsinized at room temperature for about 5 min. After 5 min, the cells were examined to ensure that they were detached from the dish or flask. Gentle tapping of the dish/flask may aid in the process. Sufficient serum-containing medium were added to an appropriate volume and the medium was pipetted up and down through a serological pipette for 4 times to obtain a single cell suspension. A portion of the cells were counted with a hemocytometer. Cells are diluted in their appropriate medium at 7×10^5 cells/ml. 100 μl/well of cell suspension is added to 96-well plates or 20 μl/well is added to 384-well plates 16-24 hours before use. For cells with HEK293 background, poly-D-lysine-coated plates are recommended. Optimal assay conditions using standard fluorescence plate readers require a confluent monolayer of cells prior to the assay. The number of cells used per well will depend upon a number of conditions including the cell line and the instrument being used to make the reading. Cell plates are removed from the incubator after overnight incubation and examined under microscope. A confluent lawn of consistently spread cells is observed. An equal volume of IX Membrane Potential Dye Solution (BD Biosciences, Rockville, Md.) is then added to each well (e.g. 100 μl to 100 μl culture medium/well for 96-well plates, or 20 μl to 20 μl culture medium/well for 384-well plates). […] The cell plates are further incubated for 2 hrs at room temperature in the dark. Membrane potential assays are performed as described in the manual for ACTOne Membrane Potential Dye Kit (BD Biosciences, Rockville, Md.). Test compounds can be added on-line (some fluorescence plate readers also have fluid addition module, and therefore compound addition and fluorescence intensity reading can happen simultaneously. i.e. FLIPR and FlexStation) or off-line (other liquid handling equipments are used for compound addition). Test compounds in 1×DPBS was added to the cell plates at 50 μl/well for 96-well plates (250 μl total well volume after addition) or 10 μl/well for 384-well plates (50 μl total well volume after addition). Cell plates are loaded into a FLIPR, FLEXstation, or other fluorescence microplate reader to read fluorescence intensity before and after compound addition. The settings on FLIPR are described in the manuals from the manufacturer. For FLEXstation and other fluorescence microplate readers, wavelengths close to the maxima of absorption and emission of the dye are used: for example, 530 nm excitation, 550 auto cut-off, and 565 nm emission. […] Fluorescence intensity counts obtained before and 30 minutes after compound addition were used for data analysis. […] It has been reported that PDE4 is a dominant isozyme in HEK293 cells. In order to analyze the specificity of the PDE assay, different PDE inhibitors (Ro20-1724, Rolipram, Etazolate (PDE IV inhibitors); 8-methoxymethyl-3-isobuty-1-m (PDE I inhibitor); Zaprinast (cGMP specific PDE inhibitor); Quazinon (PDE III inhibitor); IBMX (pan PDE inhibitor)) were purchased from Sigma. They were diluted at different concentrations in 1×DPBS and the assays were performed the same as above using the ACTOne-IRES-A2b#2 cell line. Briefly, the cells were plated on 384-well PDL coated plate. The density of the cells was 14,000 cells per well. The cells were allowed to attach and grow overnight. […]

Entries after “also recorded” stand apart in the source; their conditions may differ.

With `CCOC(=O)c1cnc2c(cnn2CC)c1NN=C(C)C.Cl` [Etazolate, 1-ethyl-4-[(1-methylethylidene)hydrazino]1H-pyrazol-o[3,4-b]pyridine-5-carboxylic acid ethyl ester hydrochloride], the “detection of PDE inhibitor activity (dose response, fluorescence intensity)” value (shortened to “detection of PDE inhibitor activity”) was “detected”.

In the case of `CCCCOc1cc(CC2CNC(=O)N2)ccc1OC` (stereo not shown) [Ro20-1724], the “detection of PDE inhibitor activity” value was “detected”.

`CCCOc1ccccc1-c1nc2nn[nH]c2c(=O)[nH]1` [Zaprinast]: the “detection of PDE inhibitor activity” value is “negative signals”.

In the case of `COc1ccc(C2CNC(=O)C2)cc1OC1CCCC1` (stereo not shown) [Rolipram, 4-[3-(cyclopentyloxy)-4-methoxyphenyl]-2-pyrrolidinone], the “detection of PDE inhibitor activity” value is “detected”.

Take `COCc1nc2c([nH]1)c(=O)n(C)c(=O)n2CC(C)C` [8-methoxymethyl-3-isobuty-1-m, 8-Methoxymethyl-3-isobutyl-1-methylxanthine]: the “detection of PDE inhibitor activity” value is “negative signals”.

Turning to `C[C@@H]1C(=O)NC2=Nc3cccc(Cl)c3CN21` [Quazinon], the “detection of PDE inhibitor activity” value is “negative signals”.

Regarding `CC(C)Cn1c(=O)n(C)c(=O)c2[nH]cnc21` [IBMX, 3-Isobutyl-1-methylxanthine], the “detection of PDE inhibitor activity” value was “can not be detected; also recorded: negative signals”.
